In patent US6855711B1, “Pharmaceutical compositions comprising iron chelators for the treatment of neurodegenerative disorders and some novel iron chelators” (Yeda Research and Development Co. Ltd., priority 1999, dated 2005):
“Also recorded” adds a separate entry of the source. Read-outs that look alike come from different tables or passages of the source. Marks after values point to notes of the source that are not given here. One block for each molecule: values may come before it.

Key:
[1] = test system: iron-induced lipid peroxidation (MDA formation) in rat brain cortex homogenates; experiment: Prevention of iron-induced lipid peroxidation (MDA formation, TBA method) in rat brain cortex homogenates; format: biochemical; settings: 10^−3M chelator; for reduction of iron-induced MDA formation: 10^−4M ferric chloride
Protocol: The ability of the compounds of the invention to prevent lipid peroxidation in brain tissue was first screened in rat brain homogenates in vitro by a method involving the detection of free radicals performed by […] and measurement of the MDA formation, as described by D. Ben-Shachar et al. (1991) J. Neurochem. 57: 1609-14. In this method, brain cortex homogenates are prepared in sucrose and incubated alone to determine basal lipid peroxidation, or incubated after the addition of Fe2(SO4)3 or FeCl3 for Fe-induction of maximum free-radical formation, and in the presence of the iron chelators to be tested. After addition of TBA, lipid peroxidation is assayed by measurement of MDA formation.
Brain cortex homogenates (10% wt/vol) from male Wistar rats were prepared in 0.3M sucrose and incubated in air as described (Rehncrona et al., (1980) J. Neurochem. 34: 1630-38). Aliquots (0.1 ml) of homogenate were incubated alone at 30° C. for 90 min to determine basal lipid peroxidation, or incubated after the addition of 10^−4 Fe2(SO4), or FeCl3 and in the presence of 10^−3M iron chelator of formula I or II. For the assay, to 0.3 ml of the homogenate there were added 0.2 ml of 8% SDS, 1.5 ml of 20% acetic acid pH 3.0-3.5, 1.5 ml of 0.8% thiobarbituric acid (TBA) and 0.5 ml of H2O2×2, the mixture was incubated at 95° C. for 60 min, cooled and lipid peroxidation was assayed by measurement of malondialdehyde formation at 532 nm, as described (Dexter et al. (1989) J. Neurobiochem. 52: 381-89). Standard curve: 1,1,3,3-tetraethoxypropane 0.1-25 nmol in 0.3 ml.
In another experiment, the Compounds 3, 7, 9-17 and 26 were examined for their ability to inhibit lipid peroxidation in vitro by measuring their capability to inhibit MDA formation in the presence of 10^−4M FeCl3 in rat brain homogenates. Ferric chloride(10^−4M)-induced lipid peroxidation, as measured by MDA formation in rat cerebral cortex homogenates, was inhibited to a different degree by 10^−3M of the various chelators.

[2] = test system: 6-OHDA-induced lesion of nigrostriatal dopamine neurons; experiment: Prevention of 6-OHDA-induced toxicity in rats (striatal biogenic amines and metabolites by HPLC); format: in vivo, rat
Protocol: Male Sprague-Dawley rats, weighing 230-270 g, were housed in a controlled-temperature room with a standardized dark-light schedule (12/12 h) for 4 weeks. Rats were anesthetized with a mixture of 15 mg/kg of pentobarbital and 60 mg/kg of chloral hydrate. 6-OHDA (250 μg in 5 μl of 0.9% NaCl containing 0.2% ascorbic acid), the chelator 3 or 15 (200 μg in 5 μl), a combination of both (the chelator 3 or 15 15 min before 6-OHDA), or saline (5 μl) (control) was injected into the right cerebral ventricle using stereotactic techniques. The coordinates with bregma as the reference were D 0.8 mm, L 1.3 mm, and V 3.6 mm according to the atlas of Paxinos and Watson. Pargyline (50 mg/kg i.p.) and desmethylimipramine-HCl (25 mg/kg i.p.) were administered to all the rats 60 min before intracerebroventricular injection. Pargyline inhibits monoamine oxidase and thereby enhances the toxicity of 6-OHDA, and desmethylimipramine provides protection for central noradrenergic neurons from the toxin. All the animals received a daily injection of isotonic glucose (4 ml/day i.p.) until they regained their original body weight. Behavioral tests were performed 4 weeks after operation, commencing between 8 and 10 a.m. The rats were killed after the behavioral studies. Desferal was obtained from Ciba Geigy, and other chemicals were from Sigma (St. Louis, Mo., U.S.A.).
Norepinephrine (NE), DA, and metabolite levels were measured as follows: four weeks postoperatively, rats were killed by decapitation, and the brains were rapidly removed. The striata were dissected on an ice-chilled glass plate and quickly frozen in liquid nitrogen. The endogenous levels of NE, DA, 3,4-dihydroxyphenylacetic acid (DOPAC), and homovanillic acid (HVA) were determined by HPLC with electrochemical detection (Ben-Shachar et al. (1991) Eur. J. Pharmacol. 202:177-83). All data are expressed as mean±SEM values. Statistical analysis was carried out by analysis of variance with multiple comparisons followed by Student's t test.
Striatal dopamine and its metabolites DOPAC and HVA concentrations, which were determined by HPLC, served as a criteria for the extent of the damage caused by 6-OHDA in the presence or absence of the iron chelators. […] Dopamine turnover was normal in rats pretreated with iron chelators (Table 1).
Based on confirmation properties of the two iron chelators 3 and 15, it was considered that Compound 15 has a better chance to cross the blood-brain-barrier (BBB) and the studies were continued with Compound 15. In order to decrease to minimum the possibility of a direct interaction between the chelator and the toxin as a cause for the protection, and to try to find a smaller effective dose of the chelator, 1 μg Compound 15 was injected intraventricularly prior to the injection of 250 μg 6-OHDA.
The main goal at this stage of research was to find out whether Compound 15 given peripherally would be able to prevent 6-OHDA-induced toxicity. In other words the question was whether the chelator will stay stable in the periphery, cross the BBB and […]. Control group received phosphate buffer pH−6.4 0.1M. On the 11th day, the rats of both groups were injected intraventricularly with 250 μg 6-OHDA.

[3] = test system: 6-OHDA-induced dopaminergic neuron degeneration; settings: cited from earlier work
[4] = Table 1: 200 μg chelator intraventricular prior to 250 μg 6-OHDA (Comb.), 6-OHDA = 250 μg 6-OHDA alone
[5] = Table 1: 200 μg chelator intraventricular prior to 250 μg 6-OHDA (Comb.), 6-OHDA = 250 μg 6-OHDA alone, mean±SEM
[6] = Table 2: 1 μg chelator 15 intraventricular prior to 250 μg 6-OHDA (Comb.), 6-OHDA = 250 μg 6-OHDA alone
[7] = Table 3: chelator 15 5 mg/Kg/day i.p. for 10 days + 250 μg 6-OHDA intraventricular (Comb.), 6-OHDA = 250 μg 6-OHDA without chelator
[8] = intracerebroventricular 6-OHDA (250 μg)

SMILES: OCCN1CCN(Cc2ccc(O)c3ncccc23)CC1 [Compound 15, 5-(4-(2-hydroxyethyl)piperazin-1-ylmethyl)-8-hydroxyquinoline]
inhibition of MDA formation (lipid peroxidation), in words ([1]; 10^−4M FeCl3, rat cerebral cortex homogenates): most effective
reduction of iron-induced MDA formation [1]: ~50%
prevention of 6-OHDA-induced lesion, in words ([2]; 1 μg intraventricular prior to 250 μg 6-OHDA): effective in preventing 6-OHDA-induced lesion
prevention of 6-OHDA-induced reduction in striatal dopamine and DOPAC concentrations, in words ([2]; 200 μg chelator intraventricular prior to 250 μg 6-OHDA): efficiently prevented
protection against 6-OHDA toxicity, in words ([2]; 5 mg/Kg i.p. for 10 days before intraventricular 250 μg 6-OHDA): Partial but significant protection; also recorded: partially protected
(DOPAC + HAV)/DA (dopamine turnover) [2, 4]: 0.15
5-HIAA in rat striatum [2, 5]: 4.48 ± 0.38 pmol/mg tissue
5-HT in rat striatum [2, 5]: 4.24 ± 0.43 pmol/mg tissue
DA in rat striatum [2, 5]: 33.8 ± 4.3 pmol/mg tissue
DOPAC in rat striatum [2, 5]: 2.45 ± 0.25 pmol/mg tissue
HVA in rat striatum [2, 5]: 2.67 ± 0.33 pmol/mg tissue
NE in rat striatum [2, 5]: 5.01 ± 0.1 pmol/mg tissue
5-HIAA in rat striatum [2, 6]: 4.98 ± 0.46 pmol/mg tissue
5-HT in rat striatum [2, 6]: 4.84 ± 0.45 pmol/mg tissue
(DOPAC + HAV)/DA (dopamine turnover) [2, 6]: 0.08
DA in rat striatum [2, 6]: 62.9 ± 3.13 pmol/mg tissue
DOPAC in rat striatum [2, 6]: 2.49 ± 0.13 pmol/mg tissue
HVA in rat striatum [2, 6]: 2.77 ± 0.25 pmol/mg tissue
NE in rat striatum [2, 6]: 1.3 ± 0.12 pmol/mg tissue
5-HIAA in rat striatum [2, 7]: 1.59 ± 0.16 pmol/mg tissue
5-HT in rat striatum [2, 7]: 2.6 ± 0.31 pmol/mg tissue
(DOPAC + HAV)/DA (dopamine turnover) [2, 7]: 0.15
DA in rat striatum [2, 7]: 24.4 ± 4.4^ab pmol/mg tissue
DOPAC in rat striatum [2, 7]: 1.4 ± 0.25 pmol/mg tissue
HVA in rat striatum [2, 7]: 2.28 ± 0.75 pmol/mg tissue
NE in rat striatum [2, 7]: 1.21 ± 0.4 pmol/mg tissue

SMILES: NCCc1cc(O)c(O)cc1O [Compound 6-OHDA, 6-hydroxydopamine]
increase in DA release as indicated by the HVA/DA ratio [3, 8]: 2.5 fold
reduction in striatal tissue content of DOPAC [3, 8]: 79%
reduction in striatal tissue content of HVA [3, 8]: 70%
reduction in striatal tissue content of dopamine (DA) [3, 8]: 88%
decrease in striatal dopamine levels ([2]; 250 μg 6-OHDA intraventricular, rats): 80%
(DOPAC + HAV)/DA (dopamine turnover) [2, 4]: 0.202
5-HIAA in rat striatum [2, 5]: 3.76 ± 0.20 pmol/mg tissue
5-HT in rat striatum [2, 5]: 4.00 ± 0.35 pmol/mg tissue
DA in rat striatum [2, 5]: 19.93 ± 5.0^c pmol/mg tissue
DOPAC in rat striatum [2, 5]: 1.79 ± 0.25^a pmol/mg tissue
HVA in rat striatum [2, 5]: 2.24 ± 0.23 pmol/mg tissue
NE in rat striatum [2, 5]: 5.0 ± 0.1 pmol/mg tissue
5-HIAA in rat striatum [2, 6]: 6.29 ± 0.65 pmol/mg tissue
5-HT in rat striatum [2, 6]: 3.22 ± 0.42 pmol/mg tissue
(DOPAC + HAV)/DA (dopamine turnover) [2, 6]: 0.14
DA in rat striatum [2, 6]: 12.93 ± 3.3^a pmol/mg tissue
DOPAC in rat striatum [2, 6]: 0.76 ± 0.11^a pmol/mg tissue
HVA in rat striatum [2, 6]: 1.10 ± 0.21^a pmol/mg tissue
NE in rat striatum [2, 6]: 1.1 ± 0.1 pmol/mg tissue
5-HIAA in rat striatum [2, 7]: 1.57 ± 0.07 pmol/mg tissue
5-HT in rat striatum [2, 7]: 2.60 ± 0.15 pmol/mg tissue
(DOPAC + HAV)/DA (dopamine turnover) [2, 7]: 0.16
DA in rat striatum [2, 7]: 9.69 ± 2.63^a pmol/mg tissue
DOPAC in rat striatum [2, 7]: 0.51 ± 0.11^A pmol/mg tissue
HVA in rat striatum [2, 7]: 1.05 ± 0.19^A pmol/mg tissue
NE in rat striatum [2, 7]: 1.22 ± 0.04 pmol/mg tissue

melting point: 232 to 234 °C (dec.)
SMILES: Cl.Cl.Cl.Oc1ccc(CN2CCNCC2)c2cccnc12

SMILES: O=C(CCC(CN(CC(=O)OCc1ccccc1)CC(=O)OCc1ccccc1)N(CC(=O)OCc1ccccc1)CC(=O)OCc1ccccc1)NCCN1CCN(C(=O)OCc2ccccc2)CC1 (stereo not shown) [Compound 1, N-[2-(4-carbobenzoxypiperazin-1-yl)ethyl]-4,5-bis[bis(benzyloxycarbonylmethyl)amino]valeramide]
reduction of iron-induced MDA formation [1]: ~50%

melting point: 227 to 228 °C
SMILES: Cl.Cl.Cl.Cl.Oc1ccc(CN2CCN(Cc3ccc(O)c4ncccc34)CC2)c2cccnc12

melting point: 72 to 75 °C
SMILES: CC(=O)c1cc(CN2CCN(CCO)CC2)ccc1O [Compound 5, 2-acetyl-4-[4-(2-hydroxyethyl)piperazin-1-yl-methyl]phenol]

SMILES: CC(=O)N(O)CCCCCNC(=O)CCC(=O)N(O)CCCCCNC(=O)CCC(=O)N(O)CCCCCN [desferrioxamine]
protection against the 6-OHDA-induced reduction in striatal DA content ([3]; 13 ng i.c.v. prior to 6-OHDA (250 μg)): 100%
protection against the 6-OHDA-induced reduction in striatal DA content ([3]; 130 ng i.c.v. prior to 6-OHDA (250 μg)): ~60%
DA release (HVA/DA ratio), in words ([3]; desferrioxamine i.c.v. prior to 6-OHDA): normalization of DA release
dopaminergic-related behavioral responses (spontaneous movements in a novel environment, rearing), in words ([3]; desferrioxamine-pretreated rats, 6-OHDA): almost normal behavioral responses
protection against 6-OHDA-induced lesions of nigrostriatal dopamine neurons, in words ([3]; rats): protected
